Results as given in US11028079B2 (ConverGene LLC, priority 2015, dated 2021).

These compounds were tested against T1, BRD4 bromodomains (Homo sapiens, UniProt O60885) (assay: BROMOscan bromodomain competition binding assay (DiscoveRx)). Conditions: Kd from 11 compound concentrations ranging from 0 to 10 μM, read-out: BROMOscan Relative Activity.
T1 construct: fused on or other part: T7 phage capsid protein (phage-display fusion; the phage DNA is read out by qPCR)
Procedure, shortened: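 Compounds in 0.1% DMSO/0.9% MEG competed with a solid-phase acetylated peptide for T7 phage-fused BRD4 bromodomains, with the retained bromodomain measured by qPCR.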

Kd [µM]	Compound
< 0.5	Cc1noc(C)c1-c1ccc2nc(-c3cnn(CC(=O)N(C)C)c3)nc(NCc3cncc(Cl)c3)c2c1 [Example 140, 2-(4-(4-(((5-chloropyridin-3-yl)methyl)amino)-6-(3,5-dimethylisoxazol-4-yl)quinazolin-2-yl)-1H-pyrazol-1-yl)-N,N-dimethylacetamide]
< 0.5	Cc1noc(C)c1-c1ccc2nc(N3CCN(CCN(C)C)CC3)nc(N[C@H](CO)c3ccccc3)c2c1 [Example 173, (S)-2-((2-(4-(2-(dimethylamino)ethyl)piperazin-1-yl)-6-(3,5-dimethylisoxazol-4-yl)quinazolin-4-yl)amino)-2-phenylethanol]
< 0.5	Cc1nn(C)cc1CNC(=O)c1nc(NC2(c3cccc(Cl)c3)CC2)c2cc(-c3c(C)noc3C)ccc2n1 [Example 245, 4-((1-(3-chlorophenyl)cyclopropyl)amino)-N-((1,3-dimethyl-1H-pyrazol-4-yl)methyl)-6-(3,5-dimethylisoxazol-4-yl)quinazoline-2-carboxamide]
0.5 to 5	Cc1noc(C)c1-c1ccc2cc(N3CCN(CCO)CC3)nc(NCc3cccc(Cl)c3)c2c1 [Example 44, 2-(4-(1-((3-chlorobenzyl)amino)-7-(3,5-dimethylisoxazol-4-yl)isoquinolin-3-yl)piperazin-1-yl)ethanol]
< 0.5	Cc1noc(C)c1-c1ccc2nc(N3CCN(C(=O)N(C)C)CC3)nc(NCc3cccc(Cl)c3)c2c1 [Example 244, 4-(4-((3-chlorobenzyl)amino)-6-(3,5-dimethylisoxazol-4-yl)quinazolin-2-yl)-N,N-dimethylpiperazine-1-carboxamide]
